The values below come from ChEMBL document CHEMBL1158695, “Cytotoxic sterol derivatives from a marine sponge Homaxinella sp” (2005).

Settings in all cases: read-out: ED50 (the source's name)
The subject of one test is XF498. As to the kind of experiment: Cytotoxicity against human XF498 cells. Type of test: functional.
The next test concerns SK-MEL-2. As to the kind of experiment: Cytotoxicity against human SK-MEL-2 cells. Type of test: functional.
Test [1] concerns HCT-15 (human colon cancer). As to the kind of experiment: Cytotoxicity against human HCT15 cells.
For another test, the system named is SK-OV-3. Nature of the test: Cytotoxicity against human SKOV3 cells. It is filed as functional.
A further test relates to A549. As to the kind of experiment: Cytotoxicity against human A549 cells. Type of test: functional.

In brackets after ≈: the same amount, converted by molar mass.

Consider `CC(C)C/C=C/[C@@H](C)[C@H]1CCC2C3=CC(=O)O[C@@]3(O)CC[C@@]21C` (stereo not given in full) [DEMETHYLINCISTEROL A1], for which the EC50 in the test with XF498 turned out to be 1.08 mg/L (≈ 3.39 µM); in the test on SK-MEL-2, 1.94 mg/L (≈ 6.09 µM); in test [1], 1.42 mg/L (≈ 4.46 µM); in the test on SK-OV-3 it was 1.7 mg/L (≈ 5.34 µM); in the test with A549, 2.79 mg/L (≈ 8.76 µM).

For the compound `CC(C)[C@H](C)/C=C/[C@@H](C)[C@H]1CCC2C3=CC(=O)O[C@@]3(O)CC[C@@]21C` (stereo not given in full) [DEMETHYLINCISTEROL A2], the EC50 turned out to be 0.93 mg/L (≈ 2.8 µM) in the test on XF498; 1.21 mg/L (≈ 3.64 µM) in the test on SK-MEL-2; 1.28 mg/L (≈ 3.85 µM) in test [1]; 1.49 mg/L (≈ 4.48 µM) in the test with SK-OV-3; 1.51 mg/L (≈ 4.54 µM) with A549.

On to `CC(C)[C@@H](C)/C=C/[C@@H](C)[C@H]1CCC2C3=CC(=O)O[C@@]3(O)CC[C@@]21C` (stereo not given in full) [DEMETHYLINCISTEROL A3], for which the EC50 in the test with XF498 is 1.14 mg/L (≈ 3.43 µM); in the test with SK-MEL-2, 1.3 mg/L (≈ 3.91 µM); in test [1], 1.39 mg/L (≈ 4.18 µM); in the test on SK-OV-3 it was 1.97 mg/L (≈ 5.93 µM); in the test on A549 it was 1.62 mg/L (≈ 4.87 µM).

For `CC[C@@H](/C=C/[C@@H](C)[C@H]1CCC2C3=CC(=O)O[C@@]3(O)CC[C@@]21C)C(C)C` (stereo not given in full) [DEMETHYLINCISTEROL A4], the EC50 worked out at 0.68 mg/L (≈ 1.96 µM) with XF498; 0.55 mg/L (≈ 1.59 µM) in the test on SK-MEL-2; 0.65 mg/L (≈ 1.88 µM) in test [1]; 0.79 mg/L (≈ 2.28 µM) in the test with SK-OV-3; 0.92 mg/L (≈ 2.66 µM) in the test on A549.

For the compound `COc1cccc2c1C(=O)c1c(O)c3c(c(O)c1C2=O)C[C@@](O)(C(=O)CO)C[C@@H]3O[C@H]1C[C@H](N)[C@H](O)[C@H](C)O1` [DOXORUBICIN], the EC50 with XF498 was determined as 0.07 mg/L (≈ 0.129 µM); with SK-MEL-2, 0.04 mg/L (≈ 0.0736 µM); in test [1] it was 0.17 mg/L (≈ 0.313 µM); with SK-OV-3, 0.09 mg/L (≈ 0.166 µM); in the test with A549, 0.11 mg/L (≈ 0.202 µM).

In the case of `CCCCO[C@@H]1C=C2[C@@H]3CC[C@H]([C@H](C)/C=C/CC(C)C)[C@@]3(C)CC[C@@H]2[C@@]2(C)CC[C@H](O)C[C@]12O` [HOMAXISTEROL A1], the EC50 in the test on XF498 was 6.33 mg/L (≈ 13.4 µM); in the test with SK-MEL-2 it was 6.88 mg/L (≈ 14.6 µM); in test [1], 7.62 mg/L (≈ 16.1 µM); in the test with SK-OV-3 it was 7.57 mg/L (≈ 16 µM); with A549, 8.54 mg/L (≈ 18.1 µM).

On to `CCCCO[C@@H]1C=C2[C@@H]3CC[C@H]([C@H](C)/C=C/[C@@H](C)C(C)C)[C@@]3(C)CC[C@@H]2[C@@]2(C)CC[C@H](O)C[C@]12O` [HOMAXISTEROL A2], for which the EC50 with XF498 was determined as 4.17 mg/L (≈ 8.57 µM); in the test on SK-MEL-2, 3.69 mg/L (≈ 7.58 µM); in test [1] it was 4.4 mg/L (≈ 9.04 µM); with SK-OV-3, 4.43 mg/L (≈ 9.1 µM); with A549 it was 6.23 mg/L (≈ 12.8 µM).

In the case of `CCCCO[C@@H]1C=C2[C@@H]3CC[C@H]([C@H](C)/C=C/[C@H](C)C(C)C)[C@@]3(C)CC[C@@H]2[C@@]2(C)CC[C@H](O)C[C@]12O` [HOMAXISTEROL A3], the EC50 was 5.03 mg/L (≈ 10.3 µM) in the test with XF498; 6.1 mg/L (≈ 12.5 µM) in the test on SK-MEL-2; 7.1 mg/L (≈ 14.6 µM) in test [1]; 7.85 mg/L (≈ 16.1 µM) with SK-OV-3; 8.42 mg/L (≈ 17.3 µM) with A549.

Turning to `CCCCO[C@@H]1C=C2[C@@H]3CC[C@H]([C@H](C)/C=C/[C@H](CC)C(C)C)[C@@]3(C)CC[C@@H]2[C@@]2(C)CC[C@H](O)C[C@]12O` [HOMAXISTEROL A4], the EC50 with XF498 was 34.1 mg/L (≈ 68.1 µM); with SK-MEL-2 it was above 30 mg/L; in test [1] it was above 30 mg/L; in the test on SK-OV-3 it was above 30 mg/L; in the test on A549, above 30 mg/L.
